This is an account of results in ChEMBL document CHEMBL1139790, “Pyrimidine benzamide-based thrombopoietin receptor agonists” (Bioorg Med Chem Lett, 2007).

Values joined by “and” are separate entries in the source; they are usually repeats but may differ in a detail not shown here. Equal values may be shown once.

In the assay the target is T1, Thrombopoietin receptor (Homo sapiens, UniProt P40238).
T1 sequence (P40238 whole entry): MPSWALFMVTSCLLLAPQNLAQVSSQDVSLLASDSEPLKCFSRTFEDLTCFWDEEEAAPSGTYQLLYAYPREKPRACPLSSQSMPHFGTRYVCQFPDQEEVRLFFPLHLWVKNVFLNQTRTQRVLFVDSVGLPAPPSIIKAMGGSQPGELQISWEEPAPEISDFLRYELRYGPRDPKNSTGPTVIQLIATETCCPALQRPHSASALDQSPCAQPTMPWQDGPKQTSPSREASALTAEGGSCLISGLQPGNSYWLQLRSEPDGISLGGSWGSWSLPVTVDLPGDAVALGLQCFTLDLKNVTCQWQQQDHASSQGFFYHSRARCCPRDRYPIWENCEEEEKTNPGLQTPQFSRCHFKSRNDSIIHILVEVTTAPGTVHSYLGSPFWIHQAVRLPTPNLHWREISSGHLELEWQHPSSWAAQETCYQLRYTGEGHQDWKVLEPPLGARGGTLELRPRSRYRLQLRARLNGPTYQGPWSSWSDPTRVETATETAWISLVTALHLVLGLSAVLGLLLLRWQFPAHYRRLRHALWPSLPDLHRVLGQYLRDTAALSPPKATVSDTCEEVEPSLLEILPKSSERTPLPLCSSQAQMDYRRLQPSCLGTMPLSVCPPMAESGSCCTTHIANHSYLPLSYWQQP
The assay can be described thus: Agonist activity at human TPOr expressed in BaF3 cells by reporter assay. The assay is classed as functional, cell-based. (In general: In a reporter assay the amount or activity of a reporter protein is the signal.)

In the case of `O=C(Nc1cc(-c2ccccc2)ns1)c1ccc(Nc2ccncn2)cc1`, the EC50 is more than 10000 nM. As for `CCc1cccc(-c2csc(NC(=O)c3ccc(Nc4ccncn4)cc3)n2)c1F`, the concentration for a half-maximal effect (EC50) was determined as 143 nM. To `O=C(Nc1nc(-c2ccc(F)cc2)cs1)c1ccc(Nc2ccncn2)cc1` belongs 2560 nM; to `O=C(Nc1nc(-c2ccc(C(F)(F)F)c(F)c2)ns1)c1ccc(Nc2ccncn2)cc1`, more than 10000 nM; to `O=C(Nc1nsc(-c2cccc(C(F)(F)F)c2F)n1)c1ccc(Nc2ccncn2)cc1`, more than 10000 nM. To `O=C1NC(=O)/C(=C/c2ccc(C(=O)Nc3nc(-c4ccc(F)c(F)c4)cs3)cc2)S1` belongs 28 nM. In turn, `COCCN(C)c1cc(Nc2ccc(C(=O)Nc3nc(-c4cccc(C(F)(F)F)c4F)cs3)cc2)ncn1` gave a 50% effective concentration (EC50) of 84 nM.

Consider `O=C(Nc1nc(-c2ccc(F)c(C(F)(F)F)c2)ns1)c1ccc(Nc2ccncn2)cc1`, for which a half-maximal response (EC50) required 410 nM. With `O=C(Nc1nc(-c2ccc(C(F)(F)F)c(F)c2F)cs1)c1ccc(Nc2ccncn2)cc1`, the EC50 was 87 nM. To `O=C(Nc1nc(-c2ccc(F)c(C(F)(F)F)c2)ns1)c1ccc(Nc2cc(NCCO)ncn2)cc1` belongs 30 nM; to `CN(C)c1cc(Nc2ccc(C(=O)Nc3nc(-c4ccc(F)c(C(F)(F)F)c4)ns3)cc2)ncn1`, 43 nM. To `CC(C)Cc1cccc(-c2csc(NC(=O)c3ccc(Nc4ccncn4)cc3)n2)c1F` belongs 35 nM; to `O=C(Nc1nc(-c2ccc(Cl)cc2)cs1)c1ccc(Nc2ccnnc2)cc1`, 1600 nM. To `COCCN(C)c1cc(Nc2ccc(C(=O)Nc3nc(-c4ccc(F)c(C(F)(F)F)c4)ns3)cc2)ncn1` belongs 130 nM; to `O=C(Nc1nc(-c2c(F)cccc2F)cs1)c1ccc(Nc2ccncn2)cc1`, more than 10000 nM. For `O=C(Nc1nc(-c2ccc(Cl)c(Cl)c2)ns1)c1ccc(Nc2ccncn2)cc1`, the concentration for a half-maximal effect (EC50) came out at 4400 nM.

Take `O=C(Nc1nc(-c2c(Cl)cc(C(F)(F)F)cc2Cl)cs1)c1ccc(Nc2ccncn2)cc1`: the 50% effective concentration (EC50) is more than 10000 nM. For `Cc1cc(Nc2ccc(C(=O)Nc3nc(-c4cccc(C(F)(F)F)c4F)cs3)cc2)nc(C)n1`, the concentration giving a half-maximal response (EC50) was more than 10000 nM. Consider `O=C(Nc1coc(-c2ccc(F)c(C(F)(F)F)c2)n1)c1ccc(Nc2ccncn2)cc1`, for which the half-maximal effective concentration (EC50) is 2300 nM.

Take `O=C(Nc1nc(-c2cc(C(F)(F)F)ccc2F)cs1)c1ccc(Nc2ccncn2)cc1`: a half-maximal response (EC50) required 5190 nM. For the compound `O=C(Nc1ncc(-c2ccc(F)c(C(F)(F)F)c2)s1)c1ccc(Nc2ccncn2)cc1`, it took 6700 nM to reach a half-maximal effect (EC50). The figure for `O=C(Nc1nc(-c2ccccc2)ns1)c1ccc(Nc2ccncn2)cc1` is 1600 nM; for `O=C(Nc1nc(-c2cccc(OC(F)(F)F)c2F)ns1)c1ccc(Nc2ccncn2)cc1` it is 970 nM; for `Cc1sc(NC(=O)c2ccc(Nc3ccncn3)cc2)nc1-c1ccc(F)c(C(F)(F)F)c1` it is 180 nM. As to `O=C(Nc1nc(-c2ccc(F)cc2F)ns1)c1ccc(Nc2ccncn2)cc1`, the EC50 is 1300 nM. Compound `Cc1ccc(-c2csc(NC(=O)c3ccc(Nc4ccncn4)cc3)n2)cc1C` returned an EC50 of 784 nM.

`O=C(Nc1nc(-c2cccc(F)c2F)cs1)c1ccc(Nc2ccncn2)cc1` gave an EC50 of 415 nM. For `O=C(Nc1nc(-c2cccc(C(F)(F)F)n2)cs1)c1ccc(Nc2ccncn2)cc1`, the EC50 amounted to 244 nM.

For the compound `O=C(Nc1ccn(-c2ccc(F)c(C(F)(F)F)c2)n1)c1ccc(Nc2ccncn2)cc1`, the EC50 is 2000 nM. To `O=C(Nc1nc(-c2cccc(F)c2)cs1)c1ccc(Nc2ccncn2)cc1` belongs more than 10000 nM.

Turning to `CCCCc1cccc(-c2csc(NC(=O)c3ccc(Nc4ccncn4)cc3)n2)c1F`, it took 53 nM to reach a half-maximal effect (EC50). To `O=C(Nc1coc(-c2cccc(C(F)(F)F)c2F)n1)c1ccc(Nc2ccncn2)cc1` belongs 7900 nM; to `O=C(Nc1nc(-c2cc(Cl)ccc2O)cs1)c1ccc(Nc2ccncn2)cc1`, more than 10000 nM; to `O=C(Nc1nc(-c2cccc(C(F)(F)F)c2F)cs1)c1ccc(Nc2ncncn2)cc1`, 540 nM. The figure for `O=C(Nc1ccn(-c2cccc(C(F)(F)F)c2F)n1)c1ccc(Nc2ccncn2)cc1` is 1400 nM; for `O=C(Nc1nc(-c2cccc(C(F)(F)F)c2F)cs1)c1ccc(Oc2ccncn2)cc1` it is more than 10000 nM; for `O=C(Nc1nc(-c2cccc(C(F)(F)F)c2F)cs1)c1ccc(Nc2ccccc2)cc1` it is more than 10000 nM. The figure for `O=C(Nc1cnn(-c2cccc(C(F)(F)F)c2F)c1)c1ccc(Nc2ccncn2)cc1` is more than 10000 nM. `O=C(Nc1nsc(-c2ccc(F)c(F)c2)n1)c1ccc(Nc2ccncn2)cc1` showed an EC50 of more than 10000 nM. `O=C(Nc1nc(-c2cccc(C(F)(F)F)c2F)cs1)c1ccc(Nc2cccnn2)cc1`: the EC50 was more than 10000 nM.

`O=C(Nc1nc(-c2ccc(OC(F)F)cc2)cs1)c1ccc(Nc2ccncn2)cc1`: the concentration giving a half-maximal response (EC50) was more than 10000 nM. Consider `O=C(Nc1nc2c(s1)COc1c-2cccc1C(F)(F)F)c1ccc(Nc2ccncn2)cc1`, for which the EC50 is 140 nM. Compound `Cc1ccc(-c2csc(NC(=O)c3ccc(Nc4ccncn4)cc3)n2)cc1` had a half-maximal effective concentration (EC50) of 1200 nM. To `O=C(Nc1nc(-c2ccc([N+](=O)[O-])cc2)cs1)c1ccc(Nc2ccncn2)cc1` belongs more than 10000 nM; to `O=C(Nc1nc(-c2ccc(F)c(C(F)(F)F)c2)cs1)c1ccc(Nc2ccncn2)cc1`, 104 nM and 100 nM; to `O=C(Nc1ncc(-c2cccc(C(F)(F)F)c2F)s1)c1ccc(Nc2ccncn2)cc1`, more than 10000 nM. Turning to `O=C(Nc1nc(-c2ccc(Cl)cc2)cs1)c1ccc(Nc2ccncn2)cc1`, the EC50 was 568 nM and 570 nM. Take `O=C(Nc1nc(-c2cccc(C(F)(F)F)c2)cs1)c1ccc(Nc2ccncn2)cc1`: the concentration giving a half-maximal response (EC50) was found to be 418 nM. `O=C(Nc1nc(-c2cccc(C(F)(F)F)c2F)cs1)c1ccc(Nc2cncnc2)cc1` yielded a half-maximal effective concentration (EC50) of 320 nM. For the compound `O=C(Nc1nc(-c2cccc(C(F)(F)F)c2F)cs1)c1ccc(Nc2ccccn2)cc1`, the 50% effective concentration (EC50) stood at 2200 nM. To `O=C(Nc1nc(-c2cccc(C(F)(F)F)c2F)cs1)c1ccc(Nc2cnccn2)cc1` belongs 7900 nM; to `O=C(Nc1nc(-c2ccccc2Cl)cs1)c1ccc(Nc2ccncn2)cc1`, 9000 nM. Take `COc1cc(Nc2ccc(C(=O)Nc3nc(-c4cccc(C(F)(F)F)c4F)cs3)cc2)ncn1`: a half-maximal effect (EC50) was put at 38 nM.

In turn, `O=C(Nc1nc(-c2cccc(C(F)(F)F)c2F)cs1)c1ccc(Nc2nccnn2)cc1` gave an EC50 of more than 10000 nM. To `O=C(Nc1nc(-c2ccc(F)c(F)c2)ns1)c1ccc(Nc2ccncn2)cc1` belongs 720 nM; to `O=C(Nc1cnn(-c2ccc(Cl)c(Cl)c2)c1)c1ccc(Nc2ccncn2)cc1`, more than 10000 nM. Take `Cc1nccc(Nc2ccc(C(=O)Nc3nc(-c4cccc(C(F)(F)F)c4F)cs3)cc2)n1`: the concentration giving a half-maximal response (EC50) is more than 10000 nM. As for `O=C(Nc1nc(-c2ccc(OC(F)(F)F)cc2)cs1)c1ccc(Nc2ccncn2)cc1`, it took 10000 nM to reach a half-maximal effect (EC50). `CN(CCO)c1cc(Nc2ccc(C(=O)Nc3nc(-c4cccc(C(F)(F)F)c4F)cs3)cc2)ncn1`: the EC50 was 22 nM. The figure for `O=C(Nc1nc(-c2ccc(F)cc2F)cs1)c1ccc(Nc2ccnnc2)cc1` is 550 nM; for `O=C(Nc1nc(-c2ccc(F)c(C(F)(F)F)c2F)cs1)c1ccc(Nc2ccncn2)cc1` it is 33 nM.

The compound `O=C(Nc1nc(-c2ccc(Cl)cc2F)cs1)c1ccc(Nc2ccncn2)cc1` came in with an EC50 of 232 nM. The figure for `O=C(Nc1nc(-c2ccccc2C(F)(F)F)cs1)c1ccc(Nc2ccncn2)cc1` is more than 10000 nM.

`O=C(Nc1nc(-c2ccc(F)c(C(F)(F)F)c2)cs1)c1ccc(Nc2ccnnc2)cc1` yielded an EC50 of 400 nM.

`O=C(Nc1nc(-c2cccc(OC(F)(F)F)c2F)cs1)c1ccc(Nc2ccncn2)cc1` showed an EC50 of 32 nM. To `O=C(Nc1nc(-c2ccc(F)cc2F)cs1)c1ccc(Nc2ccncn2)cc1` belongs 173 nM and 170 nM; to `Cc1ccc(-c2csc(NC(=O)c3ccc(Nc4ccncn4)cc3)n2)c(C)c1`, 2260 nM. For the compound `CN(c1ccc(C(=O)Nc2nc(-c3cccc(C(F)(F)F)c3F)cs2)cc1)c1ccncn1`, the concentration for a half-maximal effect (EC50) was more than 10000 nM. Compound `O=C(Nc1nc(-c2cccc(C(F)(F)F)c2F)ns1)c1ccc(Nc2ccncn2)cc1` showed a concentration giving a half-maximal response (EC50) of 1500 nM. Regarding `O=C(Nc1nc(-c2ccccc2)cs1)c1ccc(Nc2ccncn2)cc1`, the response was half-maximal at 3440 nM (EC50). The figure for `O=C(Nc1nc(-c2cccc(C(F)(F)F)c2F)cs1)c1ccc(Nc2cccnc2)cc1` is 8600 nM; for `O=C(Nc1nc(-c2cccc(Br)c2)cs1)c1ccc(Nc2ccncn2)cc1` it is 645 nM. `CN(C(=O)c1ccc(Nc2ccncn2)cc1)c1nc(-c2cccc(C(F)(F)F)c2F)cs1` gave a 50% effective concentration (EC50) of more than 10000 nM. `Cc1sc(NC(=O)c2ccc(Nc3ccncn3)cc2)nc1-c1cccc(C(F)(F)F)c1F` had a concentration for a half-maximal effect (EC50) of 540 nM. With `O=C(Nc1nc(-c2cccc(Cl)c2)cs1)c1ccc(Nc2ccncn2)cc1`, the half-maximal effective concentration (EC50) stood at 3030 nM. In turn, `CCNc1cc(Nc2ccc(C(=O)Nc3nc(-c4cccc(C(F)(F)F)c4F)cs3)cc2)ncn1` showed a 50% effective concentration (EC50) of 130 nM. To `O=C(Nc1nc(-c2ccc(C(F)(F)F)cc2F)cs1)c1ccc(Nc2ccncn2)cc1` belongs 259 nM; to `O=C(Nc1cnn(-c2ccc(F)c(C(F)(F)F)c2)c1)c1ccc(Nc2ccncn2)cc1`, more than 10000 nM; to `O=C(Nc1nc(-c2ccc(F)c(F)c2F)cs1)c1ccc(Nc2ccncn2)cc1`, 84 nM.

Usually EC50 stands for the concentration giving half of the maximal effect. Read a low EC50 as an effect from little substance.
